Test results reported in patent US11912723B2, “KRAS modulators and uses thereof” (Quanta Therapeutics, Inc., priority 2022, dated 2024).

Experiments:
KRAS G12D/RAF1 = target: T1, KRAS G12D/RAF1 (Homo sapiens, UniProt P01116, G12D); assay: Protein-protein interaction (PPI) HTRF assay KRAS G12D/RAF1; format: binding; settings: KRAS G12D/RAF1, GppNHp-loaded KRAS; 30 minutes pre-incubation
T1 construct: KRAS (1-169) proteins were expressed in E. coli at 18° C; His6-MBP (N, cleaved yes); made in house; host or cells: E. coli
Method: Biotinylated KRAS wt and KRAS G12DNV proteins were expressed and purified in conditions similar to those previously reported (Tran, et al., 2021) (Zhang, et al., 2020). Briefly, KRAS (1-169) proteins were expressed in E. coli at 18° C. with an upstream TEV cleavage site (ENLFYQS) followed an Avi tag sequence ([…]). KIRAS expression constructs contained both a His6 and maltose-binding protein (MBP) tags at the N-terminus for Ni-NTA column purification prior to overnight TEV cleavage and MBP column purification. The avi-tagged NRAS expression construct contained both a His6 tag and SUMO cleavage sige at the N-terminus for Ni-NTA column purification followed by His-ULP1 digestion overnight. All avi-tagged RAS proteins were dialyzed into buffer containing ATP, biotin, and BirA followed by purification over a second Ni-NTA column and then run over a size exclusion HiLoad™ 26/600 Superdex™ column in 20 mM HEPES, pH 7.5, 300 mM NaCl, 5 mM MgCl2, and 1 mM TCEP. Fractions containing the protein of interest were pooled, concentrated, and confirmed by intact mass spectrometry. To prepare ‘GTP’ loaded KRAS and NRAS, biotinylated KRAS or NRAS was nucleotide exchanged from GDP-bound protein to GppNHp-bound (Jena Biosciences, NU-401-50) protein in the presence of alkaline phosphatase and excess GppNHp as previously described and the resulting nucleotide content was confirmed by HPLC reverse phase analytical chromatography (Donohue, et al., 2019) (Tran, et al., 2021).
His-tagged RAF1 (52-131) was similarly expressed in E. coli at 18° C. overnight with an upstream TEV cleavage site. His-tagged RAF1 expression construct contained both a His6 and MBP tags at the N-terminus for Ni-NTA column purification followed by MBP-tagged TEV digestion overnight. RAF1 protein samples were further purified over a MBP column followed by a Ni-NTA column and a second MBP column. The fractions containing the protein of interest were pooled, concentrated, and further purified over a HiLoad™ 16/600 Superdex™ 75 pg size exclusion column into 20 mM HEPES, pH8.0, 200 mM NaCl, 5 mM TCEP.
When RAS proteins are in the active GTP-bound conformation, they bind the effector protein RAF1 at the N-terminus Ras-binding domain (RBD, residues 52-131) (Tran, et al., 2021). Homogenous time resolved fluorescence (HTRF) was used to monitor the interaction between wt or mutant KRAS and RAF1 or wt NRAS and RAFT. Compounds were assayed in the presence of KRAS G12D/V and RAF1 versus wt KRAS to assess activity against mutant and w.t. KRAS. Similarly, compounds were then assayed in the presence of w.t. NRAS and RAF1 to assess RAS isoform selectivity. In all assay formats, His-tagged RAF1 protein was incubated with the HTRF donor, anti-6His Tb Cryptate gold (Cisbio 61DB10RDF), and biotinylated RAS proteins were incubated with the HTRF acceptor, streptavidin-d2 (CisBio 610SADLA). The intensity of the fluorescence signal emitted is proportional to binding between the two proteins. The donor solution was prepared by mixing 16 nM His-tagged RAF1 in protein dilution buffer with 1:100 anti-6His Tb cryptate in PPI-Terbium detection buffer. 16 nM biotinylated RAS protein was diluted into protein dilution buffer (50 mM Tris-HCl pH 7.5, 150 mM NaCl, 0.1 mM MgCl2, 1 mM TCEP, 0.005% Tween20) and mixed with 1:2000 Streptavidin-d2 diluted in PPI-Terbium detection buffer (CisBio 61DB10RDF). 50× compound in DMSO was mixed with 16 nM KRAS-acceptor solution and incubated for 30 minutes at room temperature. After compound pre-incubation with KRAS, the RAF1 donor solution was added to the KRAS-acceptor solution and incubated for 1 hour at room temperature. The fluorescence signal emitted was monitored at 665 nm and 615 nm using an Envision multimode plate reader. The HTRF ratio (665/615) was calculated and normalized to 0% inhibition in the absence of compound and 100% inhibition in the presence of untagged RAF1 protein. […]

[1] = target: T2, GST-tagged KRAS G12D (2-169) (Homo sapiens, UniProt P01116, G12D); assay: Nucleotide exchange assay (NEA), HTRF of SOS-mediated GTP-DY-647P1 binding; format: biochemical; settings: 5 nM GST-KRAS G12D, 20 nM SOScat, 150 nM GTP; compound 1 h at RT
T2 construct: GST-tagged KRAS^G12D (2-169, Reaction Biology, MSC-11-539); purchased Reaction Biology MSC-11-539 (KRAS G12D); MSC-11-502 (SOS1cat)
Description: This activity is tightly regulated by GTPase activating proteins (GAPs) and guanine nucleotide exchange factors (GEFs). GEFs, such as SOS1/2, activate Ras proteins by exchanging GDP for GTP, thus returning Ras to its active conformation (Simanshu, Nissley, & McCormick, 2017). […] Homogenous time resolved fluorescence (HTRF) was used to detect SOS-mediated binding of a fluorescent GTP analog, GTP-DY-647P1 (Jena Biosciences NU-820-647P1) to GST-tagged KRAS^G12D (2-169, Reaction Biology, MSC-11-539).
GST-tagged KRAS^G12D (2-169) and anti-GST MAb Tb Cryptate Gold (CisBio 61GSTTLB) were diluted into assay buffer (20 mM HEPES, pH 7.3, 150 mM NaCl, 5 mM MgCl2, 0.05% BSA 0.0025% NP40, 1 mM DTT) to prepare a 2.5× donor solution. 5× compound was added to the protein mixture and incubated for 1 h at RT. 2.5× acceptor solution containing SOS1cat (564-1049, Reaction Biology MSC-11-502) and GTP-DY-647P1 were then added to the donor KRAS mixture such that the final concentration of the reaction contained 5 nM GST-tagged KRAS^G12D (2-169), 20 nM SOScat, and 150 nM GTP. The reaction was monitored using at RT with the Envision multimode plate reader (Ex/Em 337/665, […]) up to 90 minutes at 5 minute intervals. Data was blanked to reactions without SOS1 and % inhibition was calculated such that DMSO only=0% and blank=100%. Curve fitting was done using a 4 parameter fit. NEA KRAS G12D ID50 (uM) values of selected compounds are depicted in Table 2 with compounds having a value<0.01 uM as ++++; >0.01 uM to 0.1 uM as +++; >0.1 uM to 1 uM as ++; >1 uM to 20 uM as +; and >20 uM as NA.

T2 sequence (P01116 2-169 isoform P01116-2 G12D): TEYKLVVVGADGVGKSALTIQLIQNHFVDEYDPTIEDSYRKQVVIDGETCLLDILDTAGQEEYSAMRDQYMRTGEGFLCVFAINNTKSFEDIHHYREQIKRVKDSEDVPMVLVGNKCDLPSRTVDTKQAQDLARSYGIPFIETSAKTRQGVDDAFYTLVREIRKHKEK
T1 sequence (P01116 1-169 isoform P01116-2 G12D): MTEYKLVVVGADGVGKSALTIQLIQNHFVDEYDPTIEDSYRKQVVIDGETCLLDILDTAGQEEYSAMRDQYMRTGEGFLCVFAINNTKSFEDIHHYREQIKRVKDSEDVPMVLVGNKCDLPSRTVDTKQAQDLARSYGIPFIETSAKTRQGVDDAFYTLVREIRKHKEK

SMILES	IC50 (KRAS G12D/RAF1) [µM]	IC50 [1] [µM]
CN(C)C(=O)c1cc2n(n1)CCCN(c1nc(OC[C@@]34CCCN3C[C@H](F)C4)nc3c1CO[C@]1(CCc4c(Cl)cccc41)C3)C2 [Compound 27A, 5-[(7S)-4′-chloro-2-[[(2R,8S)-2-fluoro-1,2,3,5,6,7-hexahydropyrrolizin-8-yl]methoxy]spiro[5,8-dihydropyrano[4,3-d]pyrimidine-7,1′-indane]-4-yl]-N,N-dimethyl-4,6,7,8-tetrahydropyrazolo[1,5-a][1,4]diazepine-2-carboxamide]	> 100	0.1 to 1
CN(C)C(=O)c1nn2c(c1Cl)CN(c1nc(OC[C@@]34CCCN3C[C@H](F)C4)nc3c1CO[C@@]1(CCc4c(Cl)cccc41)C3)CCC2 [Compound 36, 3-chloro-5-[(7S)-4′-chloro-2-[[(2R,8S)-2-fluoro-1,2,3,5,6,7-hexahydropyrrolizin-8-yl]methoxy]spiro[5,8-dihydropyrano[4,3-d]pyrimidine-7,1′-indane]-4-yl]-N,N-dimethyl-4,6,7,8-tetrahydropyrazolo[1,5-a][1,4]diazepine-2-carboxamide]	10 to 100	< 0.01
CN1Cc2c(nc(OC[C@@]34CCCN3C[C@H](F)C4)nc2N2CCn3cncc3C2)C[C@]12CCCc1ccccc12 [Compound 91, (7S)-4-(6,8-dihydro-5H-imidazo[1,5-a]pyrazin-7-yl)-2-[[(2R,8S)-2-fluoro-1,2,3,5,6,7-hexahydropyrrolizin-8-yl]methoxy]-6-methyl-spiro[5,8-dihydropyrido[4,3-d]pyrimidine-7,1′-tetralin]]	> 100	1 to 20
CN(C)C(=O)c1nn2c(c1Cl)CN(c1nc(OC[C@@]34CCCN3C[C@H](F)C4)nc3c1CN(C)[C@]1(CCCc4ccccc41)C3)CCC2 (single isomer, unassigned) [Compound 64B]	> 100	0.1 to 1
N#Cc1ccc2c(c1)C1(CCC2)Cc2nc(OC[C@@]34CCCN3C[C@H](F)C4)nc(N3CCCCCC3)c2CO1 (stereo partly drawn) [Compound 20, 4-(azepan-1-yl)-2-[[(2R,8S)-2-fluoro-1,2,3,5,6,7-hexahydropyrrolizin-8-yl]methoxy]spiro[5,8-dihydropyrano[4,3-d]pyrimidine-7,4′-tetralin]-6′-carbonitrile]	> 100	1 to 20
CN1Cc2c(nc(OC[C@@]34CCCN3C[C@H](F)C4)nc2N2CCCn3nc(-c4ccccn4)cc3C2)C[C@]12CCCc1ccccc12 [Compound 88, (7S)-2-[[(2R,8S)-2-fluoro-1,2,3,5,6,7-hexahydropyrrolizin-8-yl]methoxy]-6-methyl-4-[2-(2-pyridyl)-4,6,7,8-tetrahydropyrazolo[1,5-a][1,4]diazepin-5-yl]spiro[5,8-dihydropyrido[4,3-d]pyrimidine-7,1′-tetralin]]	> 100	0.01 to 0.1
CN1Cc2c(nc(OC[C@@]34CCCN3C[C@H](F)C4)nc2N2CCC[C@]3(C2)NC(=O)NC3=O)C[C@]12CCCc1ccccc12 [Compound 71, (5R)-9-[(7S)-2-[[(2R,8S)-2-fluoro-1,2,3,5,6,7-hexahydropyrrolizin-8-yl]methoxy]-6-methyl-spiro[5,8-dihydropyrido[4,3-d]pyrimidine-7,1′-tetralin]-4-yl]-1,3,9-triazaspiro[4.5]decane-2,4-dione]	> 100	0.1 to 1
CN1Cc2c(nc(OCC3(CN4CCOCC4)CC3)nc2N2C[C@H]3CC[C@@H](C2)N3)C[C@]12CCCc1ccccc12 [Compound 80, 4-[[1-[[(7S)-6-methyl-4-[(1R,5S)-3,8-diazabicyclo[3.2.1]octan-3-yl]spiro[5,8-dihydropyrido[4,3-d]pyrimidine-7,1′-tetralin]-2-yl]oxymethyl]cyclopropyl]methyl]morpholine]	10 to 100	0.01 to 0.1
F[C@H]1CN2CCC[C@@]2(COc2nc3c(c(N4CCCCCC4)n2)COC2(COCc4ccccc42)C3)C1 (stereo partly drawn) [Compound 25, 4-(azepan-1-yl)-2-[[(2R,8S)-2-fluoro-1,2,3,5,6,7-hexahydropyrrolizin-8-yl]methoxy]spiro[5,8-dihydropyrano[4,3-d]pyrimidine-7,4′-isochromane]]	> 100	1 to 20
Cc1noc(-c2cc3n(n2)CCCN(c2nc(OC[C@@]45CCCN4C[C@H](F)C5)nc4c2CN(C)[C@@]2(CCc5cccc(F)c52)C4)C3)n1 [Compound 73, 5-[5-[(7S)-7′-fluoro-2-[[(2R,8S)-2-fluoro-1,2,3,5,6,7-hexahydropyrrolizin-8-yl]methoxy]-6-methyl-spiro[5,8-dihydropyrido[4,3-d]pyrimidine-7,1′-indane]-4-yl]-4,6,7,8-tetrahydropyrazolo[1,5-a][1,4]diazepin-2-yl]-3-methyl-1,2,4-oxadiazole]	> 100	0.01 to 0.1
CNCc1nn2c(c1Cl)CN(c1nc(OC[C@@]34CCCN3C[C@H](F)C4)nc3c1CO[C@@]1(CCc4c(Cl)cccc41)C3)CCC2 [Compound 59, 1-[3-chloro-5-[(7S)-4′-chloro-2-[[(2R,8S)-2-fluoro-1,2,3,5,6,7-hexahydropyrrolizin-8-yl]methoxy]spiro[5,8-dihydropyrano[4,3-d]pyrimidine-7,1′-indane]-4-yl]-4,6,7,8-tetrahydropyrazolo[1,5-a][1,4]diazepin-2-yl]-N-methyl-methanamine]	> 100	0.01 to 0.1
